According to patent publication US5916881A, “High trehalose content syrup” (Kabushiki Kaisha Hayashibara Seibutsu Kagaku Kenkyujo, priority 1996, dated 1999):
Converted amounts (≈) assume the structure as drawn. “Also recorded” adds a separate entry of the source. Like-named read-outs stand apart in the source and are kept apart here. Each block holds one compound with its values, some of them ahead of it.

Key:
Format in all cases: physicochemical
[1] = Influence of ambient temperature on the water solubility of trehalose (Experiment 1); conditions: for solubility thermodynamic: water, 5 °C, saturated solution
Protocol: The water solubility of trehalose at ambient temperature was studied by placing in a glass beaker 10 parts by weight of water and 20 parts by weight of crystalline trehalose hydrate, allowing the solution to stand at 5, 10, 15, 20, 25, 30 or 40° C. while stirring, sampling the solution, filtering the sample, and measuring the trehalose content in the filtrate to determine the solubility of trehalose in 100 g water at each temperature, i.e., the amount (g) of trehalose, d.s.b., that dissolves in 100 g water to give a saturated solution at each temperature.

[2] = Influence of the concentrations of trehalose and of mono-/diglucosyltrehalose on trehalose crystallization (Experiment 3); parameters: key to Formation of trehalose crystal: "+" means that it crystallized; "-" means that it did not
Protocol: The trehalose crystallization inhibitory effect was experimented by dissolving trehalose under heating conditions in water in an amount of 1.5, 2.0, 2.5, 2.8 or 3.3-times the water solubility at 10° C., dissolving in the solution other oligosaccharides having a trehalose structure within their molecules in an amount of 10, 30 or 60% to the trehalose, d.s.b, and allowing the resultant solution to stand at a relatively-low temperature.
Based on the results in Experiment 1, 1.5, 2.0, 2.5, 2.8 and 3.3-times the water solubility of trehalose in 100 parts by weight of water at 10° C. water corresponded to 83, 111, 138, 155 and 182 parts by weight of trehalose anhydride, d.s.b., respectively With this relationship, testing solutions with the composition as shown in Table 3 were prepared by dissolving under heating conditions in a respective glass beaker 100 parts by weight of water, trehalose in a prescribed part by weight, and either monoglucosyltrehalose, i.e., α-glucosyltrehalose or diglucosyltrehalose, i.e., α-maltosyltrehalose in a prescribed ratio, allowing the solution to stand in a thermostatic place kept at 5, 10 or 15° C. for checking the trehalose crystallization inhibitory effect.

[3] = Trehalose crystallization inhibitory effect of coexisting saccharides in a trehalose syrup over the water solubility (Experiment 2); conditions: trehalose dissolved in an amount over the water solubility; summary of Table 2
Protocol: Trehalose was dissolved by heating in water in an amount of 1.5-times the water solubility at 10° C., and the trehalose solution was allowed to stand at a relatively-cold place for checking the trehalose crystallization inhibitory effect by saccharides. […] With this relationship, testing solutions were prepared by dissolving by heating in 100 parts by weight of water in a respective glass beaker 83 parts by weight of trehalose, and a saccharide in an amount of 10% to the trehalose, i.e., 8.3 parts by weight of the saccharide selected from the group consisting of glucose, maltose, isomaltose, lactose, maltotriose, panose, maltotetraose, sorbitol, maltitol, maltotriitol, sucrose, raffinose, erlose, saccharides such as α-glucosyltrehalose or monoglucosyltrehalose, α-maltosyltrehalose or diglucosyltrehalose, and α-maltotriosyltrehalose or triglucosyltrehalose as disclosed in Japanese Patent Kokai No.143,876/95 by the present applicant; a saccharide such as α-isomaltosyl-α-glucoside or monoglucosyltrehalose as disclosed in Japanese Patent Kokai No.217,784/96 by the same applicant; and a saccharide such as α-maltosyl-α-maltoside or diglucosyltrehalose as disclosed in Japanese Patent Application No.167,486/94 by the same applicant. Each solution was allowed to stand in a thermostatic place kept at 5, 10 or 15° C. for one week, followed by macroscopically observing the presence of trehalose crystal for evaluating the trehalose crystallization inhibitory effect by the saccharides.

Water solubility (in words) ([1]; ambient temperature, summary of Table 1): relatively-low water solubility | solubility thermodynamic ([1]; d.s.b., read-out: Amount of trehalose (g) dissolving in 100 g water): 496 mg/mL (≈ 1450 mM) | solubility thermodynamic ([1]; read-out: Trehalose concentration (%)): 332 mg/mL (≈ 970 mM)
SMILES: OC[C@H]1O[C@H](O[C@H]2O[C@H](CO)[C@@H](O)[C@H](O)[C@H]2O)[C@H](O)[C@@H](O)[C@@H]1O [Trehalose, α, α-trehalose]

Amount of trehalose, times the water solubility, beyond which crystallization of trehalose was observed ([2]; coexisting diglucosyltrehalose): exceeds 2.8 times the water solubility | Formation of trehalose crystal ([2]; water 100, trehalose 83, coexisting saccharide 8.3 parts by weight, 5° C. (1.7-times solubility)): - | Formation of trehalose crystal ([2]; water 100, trehalose 83, coexisting saccharide 8.3 parts by weight, 10° C. (1.5-times solubility)): - | Formation of trehalose crystal ([2]; water 100, trehalose 83, coexisting saccharide 8.3 parts by weight, 15° C. (1.3-times solubility)): - | Formation of trehalose crystal ([2]; water 100, trehalose 83, coexisting saccharide 25 parts by weight, 5° C. (1.7-times solubility)): - | Formation of trehalose crystal ([2]; water 100, trehalose 83, coexisting saccharide 25 parts by weight, 10° C. (1.5-times solubility)): - | Formation of trehalose crystal ([2]; water 100, trehalose 83, coexisting saccharide 25 parts by weight, 15° C. (1.3-times solubility)): - | Formation of trehalose crystal ([2]; water 100, trehalose 83, coexisting saccharide 50 parts by weight, 5° C. (1.7-times solubility)): - | Formation of trehalose crystal ([2]; water 100, trehalose 83, coexisting saccharide 50 parts by weight, 10° C. (1.5-times solubility)): - | Formation of trehalose crystal ([2]; water 100, trehalose 83, coexisting saccharide 50 parts by weight, 15° C. (1.3-times solubility)): - | Formation of trehalose crystal ([2]; water 100, trehalose 111, coexisting saccharide 11 parts by weight, 5° C. (2.2-times solubility)): - | Formation of trehalose crystal ([2]; water 100, trehalose 111, coexisting saccharide 11 parts by weight, 10° C. (2.0-times solubility)): - | Formation of trehalose crystal ([2]; water 100, trehalose 111, coexisting saccharide 11 parts by weight, 15° C. (1.8-times solubility)): - | Formation of trehalose crystal ([2]; water 100, trehalose 111, coexisting saccharide 33 parts by weight, 5° C. (2.2-times solubility)): - | Formation of trehalose crystal ([2]; water 100, trehalose 111, coexisting saccharide 33 parts by weight, 10° C. (2.0-times solubility)): - | Formation of trehalose crystal ([2]; water 100, trehalose 111, coexisting saccharide 33 parts by weight, 15° C. (1.8-times solubility)): - | Formation of trehalose crystal ([2]; water 100, trehalose 111, coexisting saccharide 66 parts by weight, 5° C. (2.2-times solubility)): - | Formation of trehalose crystal ([2]; water 100, trehalose 111, coexisting saccharide 66 parts by weight, 10° C. (2.0-times solubility)): - | Formation of trehalose crystal ([2]; water 100, trehalose 111, coexisting saccharide 66 parts by weight, 15° C. (1.8-times solubility)): - | Formation of trehalose crystal ([2]; water 100, trehalose 138, coexisting saccharide 14 parts by weight, 5° C. (2.8-times solubility)): + | Formation of trehalose crystal ([2]; water 100, trehalose 138, coexisting saccharide 14 parts by weight, 10° C. (2.5-times solubility)): - | Formation of trehalose crystal ([2]; water 100, trehalose 138, coexisting saccharide 14 parts by weight, 15° C. (2.2-times solubility)): - | Formation of trehalose crystal ([2]; water 100, trehalose 138, coexisting saccharide 42 parts by weight, 5° C. (2.8-times solubility)): + | Formation of trehalose crystal ([2]; water 100, trehalose 138, coexisting saccharide 42 parts by weight, 10° C. (2.5-times solubility)): - | Formation of trehalose crystal ([2]; water 100, trehalose 138, coexisting saccharide 42 parts by weight, 15° C. (2.2-times solubility)): - | Formation of trehalose crystal ([2]; water 100, trehalose 138, coexisting saccharide 83 parts by weight, 5° C. (2.8-times solubility)): - | Formation of trehalose crystal ([2]; water 100, trehalose 138, coexisting saccharide 83 parts by weight, 10° C. (2.5-times solubility)): - | Formation of trehalose crystal ([2]; water 100, trehalose 138, coexisting saccharide 83 parts by weight, 15° C. (2.2-times solubility)): - | Formation of trehalose crystal ([2]; water 100, trehalose 155, coexisting saccharide 16 parts by weight, 5° C. (3.1-times solubility)): + | Formation of trehalose crystal ([2]; water 100, trehalose 155, coexisting saccharide 16 parts by weight, 10° C. (2.8-times solubility)): + | Formation of trehalose crystal ([2]; water 100, trehalose 155, coexisting saccharide 16 parts by weight, 15° C. (2.5-times solubility)): - | Formation of trehalose crystal ([2]; water 100, trehalose 155, coexisting saccharide 46 parts by weight, 5° C. (3.1-times solubility)): + | Formation of trehalose crystal ([2]; water 100, trehalose 155, coexisting saccharide 46 parts by weight, 10° C. (2.8-times solubility)): + | Formation of trehalose crystal ([2]; water 100, trehalose 155, coexisting saccharide 46 parts by weight, 15° C. (2.5-times solubility)): - | Formation of trehalose crystal ([2]; water 100, trehalose 155, coexisting saccharide 93 parts by weight, 5° C. (3.1-times solubility)): + | Formation of trehalose crystal ([2]; water 100, trehalose 155, coexisting saccharide 93 parts by weight, 10° C. (2.8-times solubility)): - | Formation of trehalose crystal ([2]; water 100, trehalose 155, coexisting saccharide 93 parts by weight, 15° C. (2.5-times solubility)): - | Formation of trehalose crystal ([2]; water 100, trehalose 182, coexisting saccharide 18 parts by weight, 5° C. (3.7-times solubility)): + | Formation of trehalose crystal ([2]; water 100, trehalose 182, coexisting saccharide 18 parts by weight, 10° C. (3.3-times solubility)): + | Formation of trehalose crystal ([2]; water 100, trehalose 182, coexisting saccharide 18 parts by weight, 15° C. (3.0-times solubility)): + | Formation of trehalose crystal ([2]; water 100, trehalose 182, coexisting saccharide 55 parts by weight, 5° C. (3.7-times solubility)): + | Formation of trehalose crystal ([2]; water 100, trehalose 182, coexisting saccharide 55 parts by weight, 10° C. (3.3-times solubility)): + | Formation of trehalose crystal ([2]; water 100, trehalose 182, coexisting saccharide 55 parts by weight, 15° C. (3.0-times solubility)): + | Formation of trehalose crystal ([2]; water 100, trehalose 182, coexisting saccharide 110 parts by weight, 5° C. (3.7-times solubility)): + | Formation of trehalose crystal ([2]; water 100, trehalose 182, coexisting saccharide 110 parts by weight, 10° C. (3.3-times solubility)): + | Formation of trehalose crystal ([2]; water 100, trehalose 182, coexisting saccharide 110 parts by weight, 15° C. (3.0-times solubility)): + | Trehalose crystallization inhibitory effect (in words) [3]: specifically and effectively inhibited
SMILES: OC[C@H]1O[C@H](O[C@H]2O[C@H](CO)[C@@H](O[C@H]3O[C@H](CO)[C@@H](O[C@H]4O[C@H](CO)[C@@H](O)[C@H](O)[C@H]4O)[C@H](O)[C@H]3O)[C@H](O)[C@H]2O)[C@H](O)[C@@H](O)[C@@H]1O [α-Maltosyltrehalose, α-maltosyltrehalose]
Trehalose crystallization inhibitory effect (in words) ([2]; summary of Table 3, listed as diglucosyltrehalose): satisfactory trehalose crystallization inhibitory effect; also recorded: stronger effect
